In US20230405084A1, “USE OF PHOSPHATIDYLSERINE IN PREPARATION OF DRUG FOR TREATING INFLAMMATORY BOWEL DISEASE” (JIANGSU TARGET BIOMEDICAL RESEARCH INSTITUTE CO., LTD., priority 2020, published 2023):
Numbering of substitutions follows the chain as printed.

Assays:
[1] = target: T1, Annexin A5-EGFP (wild-type Annexin A5 fused to EGFP) (Homo sapiens, UniProt P08758); assay: MST analysis of protein binding ability to PS (Annexin A5-EGFP); conditions: fitted binding curve (Fnorm), in the presence of Ca^2+, protein fixed, gradient dilution of PS, 5 min at room temperature
T1 construct: E. coli BL21(DE3), pET-28a/kanamycin vector
T1 sequence (P08758 1-320): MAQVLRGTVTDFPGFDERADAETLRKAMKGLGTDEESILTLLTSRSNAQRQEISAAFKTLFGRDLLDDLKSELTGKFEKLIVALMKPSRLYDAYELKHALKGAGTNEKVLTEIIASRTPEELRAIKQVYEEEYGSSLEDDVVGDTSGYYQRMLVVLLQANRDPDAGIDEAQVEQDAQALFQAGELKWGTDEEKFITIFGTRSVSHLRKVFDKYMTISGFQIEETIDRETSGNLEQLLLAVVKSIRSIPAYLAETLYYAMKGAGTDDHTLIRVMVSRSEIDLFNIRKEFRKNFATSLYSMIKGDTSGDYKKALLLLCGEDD
Description: (§1) 3.2.9 MST Analysis of Protein Binding Ability to PS
(§2) MST is based on the phenomenon of thermophoresis of biomolecules in capillaries, resulting in changes in the properties of biomolecules, which are manifested in changes in the fluorescence distribution of the reaction system, and the fluorescence changes reflect the affinity of biomolecular interactions.
(§3) The MST experiment was conducted as follows.
(§4) (1) Non-fluorescent ligand preparation: 20 μL of the highest concentration unmarked PS molecules was prepared. 16 PCR tubes were labeled. 10 μL of buffer was added to each of 15 PCR tubes. 10 μL from PCR tube #1 was transferred to PCR tube #2 and mixed thoroughly. 10 μL from PCR tube #2 was transferred to PCR tube #3 and mixed thoroughly. Repeat this step in all sample tubes. Finally, 10 μL from PCR tube #16 was taken out and discard.
(§5) (2) Fluorescent ligand preparation: The fluorescent ligand was diluted to 2 times the concentration to be tested, and 10 μL was added respectively to PCR tubes 1-16 in sequence using a clean pipette tip, starting from the low concentration PCR tube to the highest concentration PCR tube.
(§6) (3) Incubation: The reaction solutions of the above tubes were mixed thoroughly and incubated for 5 min at room temperature away from light. […]

[2] = target: T2, Annexin A5m-EGFP (Annexin A5 variant Annexin A5m, R25A/K29S/R63S/D68A/E72Q/D144N/E228A/D303N, fused to EGFP) (Homo sapiens, UniProt P08758, D144N/D303N/D68A/E228A/E72Q/K29S/R25A/R63S); assay: MST analysis of protein binding ability to PS (Annexin A5m-EGFP); conditions: in the presence of Ca^2+, failed to be fitted into a binding curve, protein fixed, gradient dilution of PS, 5 min at room temperature
T2 construct: pET-28a, E. coli BL21(DE3)
T2 sequence (P08758 1-320 R25A/K29S/R63S/D68A/E72Q/D144N/E228A/D303N): T1 sequence (P08758 1-320) with R25A, K29S, R63S, D68A, E72Q, D144N, E228A, D303N
Description: as §1, §2, §3, §4, §5, §6

For phosphatidylserine [PS], the Kd [1] was 13.8 µM and the Kd value [2] was “no Kd value”.
